How the values were obtained:
[1] = DNP hyperpolarisation of acetic anhydride with Finlandic acid trityl radical, with or without gadolinium complex (solid state polarisation build up); format: physicochemical
Experimental: A stock solution of radical was prepared by dissolving Finlandic acid (2.7 mg, 2.6 μmol) in unlabeled acetic anhydride (22.2 mg) yielding a solution with a concentration of 105 μmol/g.

[2] = Dissolution and hydrolysis of hyperpolarised acetic anhydride, NMR time series of 1D spectra to follow signal decay; format: physicochemical
Experimental: A stock solution of radical was prepared by dissolving Finlandic acid (2.7 mg, 2.6 μmol) in unlabeled acetic anhydride (22.2 mg) yielding a solution with a concentration of 105 μmol/g. A part (2.1 mg) of this stock solution was mixed with 1,1′-^13C2 acetic anhydride (15 μl, 17.2 mg, 0.165 mmol) to make a 12.8 mM solution. […] The sample was dissolved in 5 ml water with added NaOH (12 M, 39 μl) and allowed to hydrolyze for 15 s and then neutralized by mixing with phosphate buffer (300 μl, 1M, pH 7.3) with addition of HCl (14 μl, 12M). The sample was transferred to an NMR spectrometer and the acquisition was started 30 s after the dissolution recording a time series of 1D spectra to follow signal decay.

[3] = 13C DNP, acetic anhydride/1,1'-13C2 acetic anhydride, Finlandic acid radical 12.5 mM, gadolinium complex added as labelled (none for acetic anhydride, Example 1), FIG. 1

Compound | exponential time constant of hyperpolarisation [1, 3] [s] | exponential time constant of hyperpolarisation ([1]; Example 5: 1,1'-13C2 acetic anhydride, Finlandic acid 12.8 mM, no gadolinium complex) [s] | hydrolysis of acetic anhydride at the start of the acquisition ([2]; 5 ml water with NaOH, 15 s hydrolysis, neutralized, acquisition 30 s after dissolution) | T1 of the hydrolysis product ([2]; after dissolution in water/NaOH, hydrolysis 15 s, neutralization to pH 6.8, acquisition started 30 s after dissolution) [s]
CCCCCCCCCCCCCCCCCCN(CCCCCCCCCCCCCCCCCC)C(=O)CN1CCN(CC(=O)[O-])CCN(CC(=O)[O-])CCN(CC(=O)[O-])CC1.[Gd+3] [Gadolinium complex II, [10-[2-(dioctadecylamino)-2-oxoethyl]-1,4,7,10-tetraazacyclododecane-1,4,7-triacetato(3-)]gadolinium, reference compound] | 690 | – | – | –
CC(O)CN1CCN(CC(=O)[O-])CCN(CC(=O)[O-])CCN(CC(=O)[O-])CC1.[Gd+3] (stereo not shown) [Gadolinium complex III, [10-(2-hydroxypropyl)-1,4,7,10-tetraazacyclododecane-1,4,7-triacetato(3-)]gadolinium, reference compound] | 750 | – | – | –
CC(=O)OC(C)=O [acetic anhydride] | 670 | 525 | complete | –
CC(=O)O [hydrolysis product, acetic acid] | – | – | – | 45
[[α1,α4,α7-tris[(phenylmethoxy)methyl]-1,4,7,10-tetraazacyclododecane-1,4,7,10-tetraacetato(4-)]gadolinate(1-)]hydrogen [Gadolinium complex I] | 690 | – | – | –

Source: US9693828B2, “Composition comprising acetic anhydride and a gadolinium complex, and method for the use in hyperpolarisation in MRI analysis” (BRACCO IMAGING S.P.A., priority 2011, dated 2017)
